We go through two compounds from patent US10375956B2, “Herbicidally active 2-(substituted-phenyl)-cyclopentane-1,3-dione compounds and derivatives thereof” (Syngenta Limited, priority 2013, dated 2019).

Holding throughout (type): in vivo
The test system of one assay is Lolium perenne (LOLPE). In words: Test 2 glasshouse assay (IF50 formulation, X-77), pre-emergence herbicidal activity. Conditions: 480 h, 250 g/ha, 20DAA, read-out: Percentage phytotoxicity LOLPE. The method, then:
(§1) Seeds of a variety of monocotyledonous and dicotyledonous test plants are sown in standard soil in pots. The plants are cultivated for one day (for pre-emergence) or for about 12 days (for post-emergence) under controlled conditions in a glasshouse (warm climate species at 24/18° C., cool climate species at 20/16° C., both at day/night; 16 hours light; 65% humidity).
(§2) An “instant formulation”, known as the “IF50”, containing 50 g/liter (i.e. 5% w/v) of the “technical” (i.e. unformulated) active ingredient is prepared by dissolving the active ingredient in a mixture of organic solvents and emulsifier, details of which are provided in the Table below. This IF50 is then mixed with a small, variable amount of acetone to aid dissolution, before addition of a 0.2% v/v aqueous solution of the adjuvant X-77 (which is a mixture of alkyl aryl polyoxyethylene glycols and free fatty acids in isopropanol, CAS Registry number 11097-66-8), as the aqueous diluent, to form an aqueous spray solution which contains a predetermined concentration of the active ingredient (which varies depending on the application rate of the active ingredient to the plants) and 0.2% v/v of the adjuvant X-77. This aqueous spray solution is then sprayed onto the plants, after one day's cultivation (for pre-emergence), or after about 12 days' cultivation (range=10-13 days) (for post-emergence).
(§3) The test plants are then grown on, in a glasshouse (greenhouse) under controlled conditions (warm climate species at 24/18° C., cool climate species at 20/16° C., both at day/night; 16 hours light; 65% humidity) and are watered twice daily. 15 days after application of the test herbicide (15DAA) (for post-emergence), and 20 days after application of the test herbicide (20DAA) (for pre-emergence), the test plants are evaluated visually, and an assessed percentage phytotoxicity score is given for each herbicidal application on each plant species (with 100%=total damage to plant; 0%=no damage to plant).
Cool climate (“cool season”) grassy monocotyledonous weeds: Alopecurus myosuroides (ALOMY), Avena fatua (AVEFA), Lolium perenne (LOLPE).

In assay [1] the test system is Panicum miliaceum (PANMI). In words: Test 2 glasshouse assay (IF50 formulation, X-77), post-emergence herbicidal activity. Conditions: 360 h, 15 DAA, visual score, read-out: Post-emergence herbicidal activity (percentage phytotoxicity) PANMI; for pest or weed control at 125 g/ha: application rate 125 g/ha. The method, then:
as §1, §2, §3
(§4) Warm climate (“warm season”) grassy monocotyledonous weeds: Setaria faberi (SETFA), Panicum miliaceum (PANMI), Sorghum vulgare Pers. (SORVU) (or Sorghum bicolor (L) Moench ssp. Bicolor), Digitaria sanguinalis (DIGSA), Echinochloa crus-galli (ECHCG), and Brachiaria plantaginea (BRAPL).

Assay [2] has as its system Echinochloa crus-galli (ECHCG). Described as above. Conditions: 360 h, 15 DAA, visual score, read-out: Post-emergence herbicidal activity (percentage phytotoxicity) ECHCG; for pest or weed control at 125 g/ha: application rate 125 g/ha. Here is the method: as §1, §2, §3, §4
Assay [3] has as its system Sorghum vulgare Pers. (SORVU). The assay is described as above. Conditions: Sorghum bicolor, 360 h, 15 DAA, visual score, read-out: Post-emergence herbicidal activity (percentage phytotoxicity) SORVU; for pest or weed control at 125 g/ha: application rate 125 g/ha. The method, then:
as §1, §2, §3, §4

In assay [4] the test system is Setaria faberi (SETFA). The description is as above. Conditions: 360 h, 15 DAA, visual score, read-out: Post-emergence herbicidal activity (percentage phytotoxicity) SETFA; for pest or weed control at 125 g/ha: application rate 125 g/ha. Here is the method:
as §1, §2, §3, §4

Assay [5] has as its system Brachiaria plantaginea (BRAPL). Described as above. Conditions: Urochloa plantaginea, 360 h, 15 DAA, visual score, read-out: Post-emergence herbicidal activity (percentage phytotoxicity) BRAPL. The method, then: as §1, §2, §3, §4
For assay [6], the system named is Digitaria sanguinalis (DIGSA). The assay is described as above. To be noted: 360 h, 15 DAA, visual score, read-out: Post-emergence herbicidal activity (percentage phytotoxicity) DIGSA; for pest or weed control at 125 g/ha: application rate 125 g/ha. The method, then:
as §1, §2, §3, §4

In assay [7] the test system is Echinochloa crus-galli (ECHCG). In words: Test 1 glasshouse assay, pre-emergence herbicidal activity. To be noted: 312 h, visual evaluation after 13 days, read-out: Percentage phytotoxicity ECHCG. A digest of the protocol:
(§5)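 Glasshouse test on soil-sown seed at 24/16° C day/night and 65% humidity. Application was a spray one day post-sowing, vehicle acetone/water (50:50) with 0.5% Tween 20. Readout: visual phytotoxicity percentage at day 13.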

Assay [8] concerns Alopecurus myosuroides (ALOMY). Described as above. To be noted: 312 h, visual evaluation after 13 days, read-out: Percentage phytotoxicity ALOMY. An outline of the steps:
as §5

Assay [9] has as its system Panicum miliaceum (PANMI). Put plainly: Test 2 glasshouse assay (IF50 formulation, X-77), pre-emergence herbicidal activity. To be noted: 480 h, 250 g/ha, 20DAA, read-out: Percentage phytotoxicity PANMI. A digest of the protocol:
(§6)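 Percent phytotoxicity is scored by eye 20 days after a pre-emergence spray given one day after sowing, or 15 days after a post-emergence spray given about 12 days after sowing. Spray is IF50 formulation diluted in 0.2% v/v X-77 aqueous adjuvant.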

Assay [10] has as its system Echinochloa crus-galli (ECHCG). The description is as above. Conditions: 480 h, 250 g/ha, 20DAA, read-out: Percentage phytotoxicity ECHCG. A digest of the protocol: as §6
In assay [11] the test system is Setaria faberi (SETFA). The description is as above. Conditions: 480 h, 250 g/ha, 20DAA, read-out: Percentage phytotoxicity SETFA. An outline of the steps:
as §6

Assay [12] concerns Brachiaria plantaginea (BRAPL). Described as above. Conditions: Urochloa plantaginea, 480 h, 250 g/ha, 20DAA, read-out: Percentage phytotoxicity BRAPL. A digest of the protocol: as §6
Assay [13] has as its system Abutilon theophrasti (ABUTH). Put plainly: Test 1 glasshouse assay, pre-emergence herbicidal activity. Conditions: 312 h, visual evaluation after 13 days, read-out: Percentage phytotoxicity ABUTH. An outline of the steps: as §5
The test system of assay [14] is Amaranthus retroflexus (AMARE). The description is as above. To be noted: 312 h, visual evaluation after 13 days, read-out: Percentage phytotoxicity AMARE. An outline of the steps: as §5

SMILES strings stand for the structures.

Take `C#CCC1CC(=O)C(c2c(CC)cc(C)cc2CC)C1=O` (stereo not shown) [Compound A25, 2-(2,6-diethyl-4-methyl-phenyl)-4-(prop-2-ynyl)-cyclopentane-1,3-dione]: the pest or weed control at 250 g/ha in the assay with Lolium perenne (LOLPE) turned out to be 90%; in [7], 100%; in assay [8], 100%; in assay [9] it was 90%; in assay [10], 100%; with Setaria faberi (SETFA) [11], 80%. The pest or weed control at 250 g/ha in assay [12] was found to be 100%. Moreover, the pest or weed control at 30 g/ha in assay [1] (application rate 30 g/ha) stood at 100%; in assay [2] (application rate 30 g/ha), 100%; in assay [3] (application rate 30 g/ha), 100%; in the assay on Setaria faberi (SETFA) [4] (application rate 30 g/ha), 90%; in assay [5] (application rate 30 g/ha), 100%; in [6] (application rate 30 g/ha) it was 100%. For the same compound, the pest or weed control at 125 g/ha (in [1]; in [2]; in assay [3]; with Setaria faberi (SETFA) [4]; in [5] (application rate 125 g/ha); in assay [6]) was 100% throughout.
On to `C#CCC1CC(=O)C(c2c(F)cc(-c3ccc(Cl)cc3)cc2Cl)C1=O` (stereo not shown) [Compound A6, 2-[2-chloro-4-(4-chlorophenyl)-6-fluorophenyl]-4-prop-2-ynylcyclopentane-1,3-dione], for which the pest or weed control at 250 g/ha in the assay with Lolium perenne (LOLPE) is 30%; in [1] (application rate 250 g/ha), 100%; in [2] (application rate 250 g/ha), 100%; in [3] (application rate 250 g/ha) it was 100%; with Setaria faberi (SETFA) [4] (application rate 250 g/ha) it was 100%; in assay [6] (application rate 250 g/ha), 100%. Further, the pest or weed control at 250 g/ha is 100% in [7]; 40% in assay [13]; 90% in [14]; 90% in assay [8]; 0% in [9]; 50% in [10]. The pest or weed control at 250 g/ha in the assay with Setaria faberi (SETFA) [11] was found to be 0%. The pest or weed control at 125 g/ha (in assay [1]; in [2]; in assay [3]; in the assay with Setaria faberi (SETFA) [4]; in assay [6]) was 100% in each case.
